Data reported in patent publication US20120244567A1, “HUMAN EMBRYONIC STEM CELLS FOR HIGH THROUGHOUT DRUG SCREENING” (BUCK INSTITUTE FOR RESEARCH ON AGING, priority 2009, published 2012).
Structures can show the parent of a compound that is named as a salt.

Tested on: dopaminergic neurons
Details: enriched in treated DA neurons
Protocol: RNAs isolated from NSCs and neurons with and without drug treatments were hybridized to Illumina HumanRef-8 BeadChip (Illumina, Inc., San Diego, Calif., performed by Microarray core facility at the Burnham Institute for Medical Research). The Illumina array data were normalized by the quantile method, and then transformed log 2 ratio values for a zero mean for expression values of each gene across all samples. The statistical and bioinformatics analyses were conducted by using R and the bioconductor package (www.bioconductor.org). The gene set enrichment analysis was conducted using the GSEA software (www.broad.mit.edu/gsea).
The comparative results are then measured by a non-parametric, running sum statistic termed the enrichment score. The enrichment score significance is assessed by 1,000 permutation tests to compute the enrichment p-value.

CCCCc1oc2ccccc2c1C(=O)c1cc(I)c(OCCN(CC)CC)c(I)c1 [Amiodarone Hydrochloride]
Nes: Secondary Active Transmembrane Transporter Activity (Nom P-Val 0): 1.633 | Nes: Protein Serine Threonine Kinase Activity (Nom P-Val 0.027778): 1.386 | Nes: Sequence Specific Dna Binding (Nom P-Val 0.056338): 1.388 | Nes: Phosphotransferase Activity Alcohol Group As Acceptor (Nom P-Val 0.059524): 1.237 | Nes: Anion Transmembrane Transporter Activity (Nom P-Val 0.065574): 1.432 | Nes: Lipase Activity (Nom P-Val 0.067797): 1.422 | Nes: Active Transmembrane Transporter Activity (Nom P-Val 0.082192): 1.376 | Nes: Receptor Signaling Protein Serine Threonine Kinase Activity (Nom P-Val 0.157895): 1.268 | Nes: Protein Kinase Activity (Nom P-Val 0.176471): 1.196 | Nes: Structural Constituent Of Muscle (Nom P-Val 0.207547): 1.208 | Nes: Structure Specific Dna Binding (Nom P-Val 0.230769): 1.183 | Nes: Receptor Signaling Protein Activity (Nom P-Val 0.236842): 1.149 | Nes: Ligase Activity Forming Carbon Nitrogen Bonds (Nom P-Val 0.242857): 1.127 | Nes: Small Conjugating Protein Ligase Activity (Nom P-Val 0.243243): 1.144 | Nes: Ligase Activity (Nom P-Val 0.25): 1.14 | Nes: Phosphoric Diester Hydrolase Activity (Nom P-Val 0.25): 1.183 | Nes: Rhodopsin Like Receptor Activity (Nom P-Val 0.25): 1.144 | Nes: Small Protein Conjugating Enzyme Activity (Nom P-Val 0.257576): 1.146 | Nes: Deoxyribonuclease Activity (Nom P-Val 0.258621): 1.315 | Nes: Acid Amino Acid Ligase Activity (Nom P-Val 0.28): 1.18 | Nes: Ubiquitin Protein Ligase Activity (Nom P-Val 0.301587): 1.139 | Nes: Atp Binding (Nom P-Val 0.318841): 1.077 | Nes: Atpase Activity Coupled To Movement Of Substances (Nom P-Val 0.355932): 1.065 | Nes: Dna Binding (Nom P-Val 0.359551): 1.034 | Nes: Nuclease Activity (Nom P-Val 0.360656): 1.072 | Nes: Hydrogen Ion Transmembrane Transporter Activity (Nom P-Val 0.366667): 1.078 | Nes: Udp Glycosyltransferase Activity (Nom P-Val 0.366667): 1.093 | Nes: Kinase Activity (Nom P-Val 0.367816): 1.036 | Nes: Rna Polymerase Ii Transcription Factor Activity (Nom P-Val 0.371429): 1.042 | Nes: Hydrolase Activity Acting On Acid Anhydrides Catalyzing Transmembrane Movement Of Substances (Nom P-Val 0.376812): 1.094 | Nes: Double Stranded Dna Binding (Nom P-Val 0.37931): 1.072 | Nes: Enzyme Activator Activity (Nom P-Val 0.382353): 1.049 | Nes: Transmembrane Receptor Activity (Nom P-Val 0.382716): 1.055 | Nes: Inorganic Cation Transmembrane Transporter Activity (Nom P-Val 0.40625): 1.065 | Nes: Enzyme Inhibitor Activity (Nom P-Val 0.409091): 1.052 | Nes: Transferase Activity Transferring Groups Other Than Amino Acyl Groups (Nom P-Val 0.415385): 1.05 | Nes: Endonuclease Activity (Nom P-Val 0.419355): 0.9859 | Nes: Cytokine Activity (Nom P-Val 0.421875): 1.063 | Nes: Oxidoreductase Activity Acting On Ch Oh Group Of Donors (Nom P-Val 0.424242): 1.054 | Nes: Oxidoreductase Activity Acting On The Ch Ch Group Of Donors (Nom P-Val 0.428571): 1.028 | Nes: Primary Active Transmembrane Transporter Activity (Nom P-Val 0.430556): 1.056 | Nes: Gtpase Activity (Nom P-Val 0.442857): 1.015 | Nes: Transferase Activity Transferring Acyl Groups (Nom P-Val 0.451613): 1.003 | Nes: Damaged Dna Binding (Nom P-Val 0.45283): 1.036 | Nes: Phosphatase Regulator Activity (Nom P-Val 0.467742): 1.042 | Nes: N Acetyltransferase Activity (Nom P-Val 0.473684): 1.019 | Nes: Structural Constituent Of Cytoskeleton (Nom P-Val 0.482759): 0.9708 | Nes: Adenyl Ribonucleotide Binding (Nom P-Val 0.506667): 0.9848 | Nes: G Protein Coupled Receptor Activity (Nom P-Val 0.514706): 0.9852 | Nes: Protease Inhibitor Activity (Nom P-Val 0.516667): 0.9864 | Nes: Transmembrane Receptor Protein Kinase Activity (Nom P-Val 0.516667): 0.965 | Nes: N Acyltransferase Activity (Nom P-Val 0.519231): 0.9889 | Nes: Enzyme Regulator Activity (Nom P-Val 0.520548): 0.9793 | Nes: Hormone Activity (Nom P-Val 0.523077): 0.9749 | Nes: General Rna Polymerase Ii Transcription Factor Activity (Nom P-Val 0.530612): 0.9238 | Nes: Pyrophosphatase Activity (Nom P-Val 0.54321): 0.9536 | Nes: Purine Ribonucleotide Binding (Nom P-Val 0.5625): 0.9577 | Nes: Receptor Activity (Nom P-Val 0.5625): 0.9738 | Nes: Transferase Activity Transferring Sulfur Containing Groups (Nom P-Val 0.566667): 0.9403 | Nes: Magnesium Ion Binding (Nom P-Val 0.567568): 0.9401 | Nes: Integrin Binding (Nom P-Val 0.571429): 0.9141 | Nes: Substrate Specific Transporter Activity (Nom P-Val 0.573171): 0.929 | Nes: Acetyltransferase Activity (Nom P-Val 0.6): 0.9474 | Nes: Single Stranded Dna Binding (Nom P-Val 0.605634): 0.9533 | Nes: Protein Homodimerization Activity (Nom P-Val 0.621212): 0.8817 | Nes: Protein Domain Specific Binding (Nom P-Val 0.628571): 0.9357 | Nes: Lipid Transporter Activity (Nom P-Val 0.62963): 0.9194 | Nes: Protein Dimerization Activity (Nom P-Val 0.636364): 0.9248 | Nes: Ion Transmembrane Transporter Activity (Nom P-Val 0.64): 0.9276 | Nes: Transferase Activity Transferring Hexosyl Groups (Nom P-Val 0.642857): 0.9266 | Nes: Nucleotide Binding (Nom P-Val 0.643836): 0.9324 | Nes: Transferase Activity Transferring Phosphorus Containing Groups (Nom P-Val 0.64557): 0.9499 | Nes: Zinc Ion Binding (Nom P-Val 0.647059): 0.896 | Nes: Translation Regulator Activity (Nom P-Val 0.661017): 0.8764 | Nes: Translation Factor Activity Nucleic Acid Binding (Nom P-Val 0.681159): 0.8454 | Nes: Carbohydrate Binding (Nom P-Val 0.688525): 0.8882 | Nes: Adenyl Nucleotide Binding (Nom P-Val 0.694118): 0.8847 | Nes: Microtubule Binding (Nom P-Val 0.696429): 0.8123 | Nes: Substrate Specific Transmembrane Transporter Activity (Nom P-Val 0.697368): 0.9071 | Nes: Transcription Cofactor Activity (Nom P-Val 0.7): 0.8775 | Nes: Transcription Coactivator Activity (Nom P-Val 0.708333): 0.8777 | Nes: Sulfotransferase Activity (Nom P-Val 0.719298): 0.88 | Nes: Endopeptidase Activity (Nom P-Val 0.720588): 0.8136 | Nes: Metallopeptidase Activity (Nom P-Val 0.733333): 0.8731 | Nes: Neurotransmitter Binding (Nom P-Val 0.754717): 0.789 | Nes: Neurotransmitter Receptor Activity (Nom P-Val 0.757576): 0.7972 | Nes: Lyase Activity (Nom P-Val 0.758065): 0.8646 | Nes: Transmembrane Transporter Activity (Nom P-Val 0.759494): 0.8985 | Nes: Transcription Repressor Activity (Nom P-Val 0.76): 0.8555 | Nes: Nucleoside Triphosphatase Activity (Nom P-Val 0.761905): 0.8734 | Nes: Purine Nucleotide Binding (Nom P-Val 0.763158): 0.861 | Nes: Hydrolase Activity Acting On Acid Anhydrides (Nom P-Val 0.770115): 0.8688 | Nes: Motor Activity (Nom P-Val 0.77193): 0.7716 | Nes: Calcium Channel Activity (Nom P-Val 0.781818): 0.7534 | Nes: Hydro Lyase Activity (Nom P-Val 0.792453): 0.773 | Nes: Calcium Ion Binding (Nom P-Val 0.805556): 0.7913 | Nes: Hydrolase Activity Acting On Carbon Nitrogen But Not Peptide Bonds In Linear Amides (Nom P-Val 0.826923): 0.6663 | Nes: Transmembrane Receptor Protein Tyrosine Kinase Activity (Nom P-Val 0.828947): 0.7856 | Nes: Ion Binding (Nom P-Val 0.833333): 0.813 | Nes: Molecular Adaptor Activity (Nom P-Val 0.84507): 0.7682 | Nes: Gtp Binding (Nom P-Val 0.848485): 0.769 | Nes: Guanyl Nucleotide Exchange Factor Activity (Nom P-Val 0.857143): 0.7708 | Nes: Carbon Oxygen Lyase Activity (Nom P-Val 0.86): 0.7402
